How the values were obtained:
[1] = Half life in Sprague-Dawley rat at 1 mg/kg, iv measured up to 24 hrs by LC-MS/MS analysis; type: ADME, organism-based; details: in vivo
[2] = Half life in Sprague-Dawley rat at 1 mg/kg, po measured up to 24 hrs by LC-MS/MS analysis; type: ADME, organism-based; details: in vivo
[3] = Oral availability in Sprague-Dawley rat at 1 mg/kg measured up to 24 hrs by LC-MS/MS analysis; type: ADME, organism-based; details: in vivo
[4] = molecular target: CYP3A4 (Homo sapiens, UniProt P08684); test: in vitro; details: liver microsomes, probe midazolam, TDI
CYP3A4, sequence (P08684 whole entry): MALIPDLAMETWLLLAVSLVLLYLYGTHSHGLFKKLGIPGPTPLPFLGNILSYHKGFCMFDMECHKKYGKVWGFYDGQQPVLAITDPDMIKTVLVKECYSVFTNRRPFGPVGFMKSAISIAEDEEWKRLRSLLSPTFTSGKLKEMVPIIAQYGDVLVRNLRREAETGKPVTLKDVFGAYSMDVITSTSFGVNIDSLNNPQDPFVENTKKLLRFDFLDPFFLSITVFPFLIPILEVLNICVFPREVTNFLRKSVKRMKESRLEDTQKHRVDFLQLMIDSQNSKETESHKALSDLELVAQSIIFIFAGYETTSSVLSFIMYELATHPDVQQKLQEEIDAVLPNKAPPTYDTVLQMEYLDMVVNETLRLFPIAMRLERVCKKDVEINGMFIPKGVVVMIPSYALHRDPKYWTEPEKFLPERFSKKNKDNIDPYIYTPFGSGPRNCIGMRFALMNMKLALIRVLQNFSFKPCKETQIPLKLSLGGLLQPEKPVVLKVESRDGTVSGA

[5] = AUC (0 to 24 hrs) in Sprague-Dawley rat at 1 mg/kg, iv measured up to 24 hrs by LC-MS/MS analysis; type: ADME, organism-based; parameters: dose 1 mg/kg, time < 24 hrs, route iv; details: in vivo
[6] = in vitro; details: PAMPA, pH 6.5, permeability
Description: Permeability of the compound in pH 6.5 incubated for 2 hrs by PAMPA based HPLC analysis

[7] = Clearance in Sprague-Dawley rat at 1 mg/kg, iv measured up to 24 hrs by LC-MS/MS analysis; type: ADME, organism-based; details: in vivo
[8] = AUC (0 to 24 hrs) in Sprague-Dawley rat at 1 mg/kg, po measured up to 24 hrs by LC-MS/MS analysis; type: ADME, organism-based; parameters: dose 1 mg/kg, time < 24 hrs, route po; details: in vivo
[9] = Cmax in Sprague-Dawley rat at 1 mg/kg, po measured up to 24 hrs by LC-MS/MS analysis; type: ADME, organism-based; parameters: time < 24 hrs, dose 1 mg/kg, route po; details: in vivo
[10] = Tmax in Sprague-Dawley rat at 1 mg/kg, po measured up to 24 hrs by LC-MS/MS analysis; type: ADME, organism-based; details: in vivo
[11] = Volume of distribution in Sprague-Dawley rat at 1 mg/kg, iv measured up to 24 hrs by LC-MS/MS analysis; type: ADME, organism-based; details: in vivo
[12] = molecular target: T1, Tyrosine-protein kinase JAK3 (Homo sapiens, UniProt P52333)
T1 sequence (P52333 whole entry): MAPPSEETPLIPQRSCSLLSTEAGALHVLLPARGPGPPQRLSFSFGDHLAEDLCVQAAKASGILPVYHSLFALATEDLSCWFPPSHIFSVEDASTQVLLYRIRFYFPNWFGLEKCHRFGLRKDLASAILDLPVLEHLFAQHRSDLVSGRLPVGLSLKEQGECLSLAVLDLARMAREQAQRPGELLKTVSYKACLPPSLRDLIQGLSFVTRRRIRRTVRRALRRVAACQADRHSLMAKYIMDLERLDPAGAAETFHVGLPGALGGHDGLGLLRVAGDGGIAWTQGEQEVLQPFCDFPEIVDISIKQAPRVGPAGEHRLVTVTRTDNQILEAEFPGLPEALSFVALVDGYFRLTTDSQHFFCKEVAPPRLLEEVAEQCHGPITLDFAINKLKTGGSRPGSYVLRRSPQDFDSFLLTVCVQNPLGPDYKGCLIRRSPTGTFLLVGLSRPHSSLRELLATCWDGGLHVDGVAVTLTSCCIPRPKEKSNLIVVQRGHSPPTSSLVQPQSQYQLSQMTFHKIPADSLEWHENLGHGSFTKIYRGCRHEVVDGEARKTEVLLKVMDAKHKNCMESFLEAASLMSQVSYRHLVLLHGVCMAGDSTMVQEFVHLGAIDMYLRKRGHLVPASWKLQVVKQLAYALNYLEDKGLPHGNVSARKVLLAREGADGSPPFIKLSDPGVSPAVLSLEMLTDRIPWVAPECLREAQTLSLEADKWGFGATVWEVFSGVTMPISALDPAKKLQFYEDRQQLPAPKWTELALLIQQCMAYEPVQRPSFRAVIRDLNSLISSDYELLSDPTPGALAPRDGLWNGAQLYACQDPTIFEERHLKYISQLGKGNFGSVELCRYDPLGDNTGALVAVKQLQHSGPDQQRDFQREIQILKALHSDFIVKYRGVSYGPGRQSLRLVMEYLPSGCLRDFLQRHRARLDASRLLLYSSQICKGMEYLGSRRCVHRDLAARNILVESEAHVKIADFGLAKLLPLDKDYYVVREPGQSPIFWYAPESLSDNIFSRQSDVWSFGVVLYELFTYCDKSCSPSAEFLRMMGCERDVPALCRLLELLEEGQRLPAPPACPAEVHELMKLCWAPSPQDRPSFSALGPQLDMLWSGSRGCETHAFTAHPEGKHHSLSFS
Description: Inhibition of human JAK3 kinase domain using biotin-Lyn-substrate-2 as substrate incubated for 1 hr by ELISA

[13] = molecular target: Tyrosine-protein kinase JAK1 (Homo sapiens, UniProt P23458)
Tyrosine-protein kinase JAK1, sequence (P23458 whole entry): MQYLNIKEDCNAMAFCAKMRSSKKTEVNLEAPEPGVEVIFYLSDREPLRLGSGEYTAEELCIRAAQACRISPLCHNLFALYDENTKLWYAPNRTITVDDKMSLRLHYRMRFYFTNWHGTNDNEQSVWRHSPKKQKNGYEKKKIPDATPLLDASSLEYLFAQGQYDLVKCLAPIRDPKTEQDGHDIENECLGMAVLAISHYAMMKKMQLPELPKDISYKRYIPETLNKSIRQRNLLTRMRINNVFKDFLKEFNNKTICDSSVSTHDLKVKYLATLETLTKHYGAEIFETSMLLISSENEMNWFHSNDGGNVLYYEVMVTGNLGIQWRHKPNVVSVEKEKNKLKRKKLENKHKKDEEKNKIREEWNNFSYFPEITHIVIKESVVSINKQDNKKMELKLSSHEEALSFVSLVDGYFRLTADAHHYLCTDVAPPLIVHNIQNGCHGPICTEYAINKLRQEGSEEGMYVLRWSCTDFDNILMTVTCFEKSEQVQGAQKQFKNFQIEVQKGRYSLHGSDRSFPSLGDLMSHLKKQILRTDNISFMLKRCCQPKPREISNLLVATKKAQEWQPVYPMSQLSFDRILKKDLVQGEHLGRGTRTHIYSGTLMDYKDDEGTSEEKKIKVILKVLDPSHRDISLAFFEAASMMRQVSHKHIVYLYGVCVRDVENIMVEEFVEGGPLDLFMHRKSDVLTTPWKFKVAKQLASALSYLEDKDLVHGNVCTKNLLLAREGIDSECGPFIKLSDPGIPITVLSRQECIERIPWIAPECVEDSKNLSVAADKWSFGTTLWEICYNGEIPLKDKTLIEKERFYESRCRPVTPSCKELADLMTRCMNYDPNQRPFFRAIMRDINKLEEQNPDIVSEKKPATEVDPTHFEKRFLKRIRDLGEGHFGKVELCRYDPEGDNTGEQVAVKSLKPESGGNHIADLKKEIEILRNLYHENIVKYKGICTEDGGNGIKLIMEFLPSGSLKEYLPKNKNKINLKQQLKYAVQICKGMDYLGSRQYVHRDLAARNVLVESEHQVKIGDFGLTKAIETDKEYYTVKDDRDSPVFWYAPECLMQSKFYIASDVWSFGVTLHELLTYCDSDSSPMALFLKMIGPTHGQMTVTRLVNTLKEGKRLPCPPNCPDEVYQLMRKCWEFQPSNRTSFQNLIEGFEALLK
Description: Inhibition of human JAK1 kinase domain using biotin-Lyn-substrate-2 as substrate incubated for 1 hr by ELISA

[14] = molecular target: Tyrosine-protein kinase JAK2 (Homo sapiens, UniProt O60674)
Tyrosine-protein kinase JAK2, sequence (O60674 whole entry): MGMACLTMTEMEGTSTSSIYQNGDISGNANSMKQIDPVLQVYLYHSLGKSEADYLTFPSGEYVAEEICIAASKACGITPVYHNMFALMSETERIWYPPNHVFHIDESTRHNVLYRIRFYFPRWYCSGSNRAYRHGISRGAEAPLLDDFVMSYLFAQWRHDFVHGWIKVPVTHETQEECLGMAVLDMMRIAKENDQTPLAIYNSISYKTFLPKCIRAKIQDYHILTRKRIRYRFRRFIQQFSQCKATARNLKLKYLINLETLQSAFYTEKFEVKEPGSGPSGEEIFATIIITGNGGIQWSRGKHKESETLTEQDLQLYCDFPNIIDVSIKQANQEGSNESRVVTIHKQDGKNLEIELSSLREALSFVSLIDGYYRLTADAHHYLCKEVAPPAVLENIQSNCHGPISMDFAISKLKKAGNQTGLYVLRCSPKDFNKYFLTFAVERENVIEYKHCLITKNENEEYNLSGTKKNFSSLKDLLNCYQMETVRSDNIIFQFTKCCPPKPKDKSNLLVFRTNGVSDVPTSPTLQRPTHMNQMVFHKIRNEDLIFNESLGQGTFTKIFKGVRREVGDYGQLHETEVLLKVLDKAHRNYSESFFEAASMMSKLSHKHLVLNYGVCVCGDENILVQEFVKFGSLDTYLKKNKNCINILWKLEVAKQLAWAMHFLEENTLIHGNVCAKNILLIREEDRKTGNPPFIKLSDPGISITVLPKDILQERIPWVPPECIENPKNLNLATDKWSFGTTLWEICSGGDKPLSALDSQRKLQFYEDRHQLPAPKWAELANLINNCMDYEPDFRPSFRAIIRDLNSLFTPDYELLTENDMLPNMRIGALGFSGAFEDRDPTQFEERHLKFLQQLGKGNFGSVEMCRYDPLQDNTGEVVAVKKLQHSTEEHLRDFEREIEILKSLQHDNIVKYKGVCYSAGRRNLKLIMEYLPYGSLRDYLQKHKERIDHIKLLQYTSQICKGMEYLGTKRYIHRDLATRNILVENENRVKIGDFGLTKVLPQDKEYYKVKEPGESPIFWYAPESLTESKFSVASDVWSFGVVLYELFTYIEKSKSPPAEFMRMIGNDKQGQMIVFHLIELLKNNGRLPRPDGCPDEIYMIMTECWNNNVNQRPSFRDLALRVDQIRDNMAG
Description: Inhibition of human JAK2 kinase domain using biotin-Lyn-substrate-2 as substrate incubated for 1 hr by ELISA

[15] = molecular target: Tyrosine-protein kinase Lck (Homo sapiens) (UniProt P06239); test: Inhibition of LCK (unknown origin) at 1000 nM relative to control
[16] = molecular target: Protein kinase C alpha type (Homo sapiens) (UniProt P17252); test: Inhibition of PKCalpha (unknown origin) at 1000 nM relative to control
[17] = molecular target: Rho-associated protein kinase 1 (Homo sapiens) (UniProt Q13464); test: Inhibition of ROCK1 (unknown origin) at 1000 nM relative to control
Rho-associated protein kinase 1 (Homo sapiens), sequence (Q13464 2-1354 limits assumed): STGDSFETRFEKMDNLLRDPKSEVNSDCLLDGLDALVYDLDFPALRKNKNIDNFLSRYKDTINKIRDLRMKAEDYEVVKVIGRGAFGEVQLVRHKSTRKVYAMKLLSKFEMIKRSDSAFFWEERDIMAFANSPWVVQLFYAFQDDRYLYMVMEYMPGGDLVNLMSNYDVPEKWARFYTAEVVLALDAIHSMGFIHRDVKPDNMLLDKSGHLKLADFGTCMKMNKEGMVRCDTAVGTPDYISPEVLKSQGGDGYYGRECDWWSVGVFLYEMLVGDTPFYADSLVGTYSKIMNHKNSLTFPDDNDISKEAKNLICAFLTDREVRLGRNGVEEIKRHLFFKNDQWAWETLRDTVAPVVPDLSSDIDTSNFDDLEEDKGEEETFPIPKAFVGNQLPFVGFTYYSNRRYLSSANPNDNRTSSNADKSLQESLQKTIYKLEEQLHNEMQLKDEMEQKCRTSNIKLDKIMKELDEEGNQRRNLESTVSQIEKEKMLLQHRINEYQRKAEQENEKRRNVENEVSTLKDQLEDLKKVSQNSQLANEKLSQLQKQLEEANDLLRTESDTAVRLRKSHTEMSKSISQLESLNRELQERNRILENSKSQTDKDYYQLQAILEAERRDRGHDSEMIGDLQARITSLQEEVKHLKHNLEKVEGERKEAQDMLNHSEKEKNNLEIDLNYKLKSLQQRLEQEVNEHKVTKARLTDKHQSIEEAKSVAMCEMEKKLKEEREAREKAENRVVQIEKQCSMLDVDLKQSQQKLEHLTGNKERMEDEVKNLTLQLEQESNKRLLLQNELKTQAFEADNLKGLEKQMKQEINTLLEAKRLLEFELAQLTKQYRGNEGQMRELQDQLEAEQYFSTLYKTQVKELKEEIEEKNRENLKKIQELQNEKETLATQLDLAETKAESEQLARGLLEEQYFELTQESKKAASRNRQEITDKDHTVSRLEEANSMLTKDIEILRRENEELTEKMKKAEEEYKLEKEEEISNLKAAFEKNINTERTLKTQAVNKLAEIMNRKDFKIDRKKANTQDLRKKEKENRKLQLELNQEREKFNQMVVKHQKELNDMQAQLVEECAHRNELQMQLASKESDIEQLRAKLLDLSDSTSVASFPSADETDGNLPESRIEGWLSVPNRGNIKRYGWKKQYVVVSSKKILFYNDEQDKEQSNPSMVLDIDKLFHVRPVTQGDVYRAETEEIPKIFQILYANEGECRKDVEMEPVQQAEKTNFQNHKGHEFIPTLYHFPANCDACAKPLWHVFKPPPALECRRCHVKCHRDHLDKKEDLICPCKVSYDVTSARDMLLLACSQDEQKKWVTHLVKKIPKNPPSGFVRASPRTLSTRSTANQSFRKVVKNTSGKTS

[18] = in vitro; details: Sprague-Dawley, rat, liver microsomes, CLH
[19] = molecular target: Cyclin-dependent kinase 2 (Homo sapiens, UniProt P24941); test: Inhibition of CDK2 (unknown origin) at 1000 nM relative to control
[20] = molecular target: Mitogen-activated protein kinase 8 (Homo sapiens, UniProt P45983); test: Inhibition of JNK1 (unknown origin) at 1000 nM relative to control
[21] = molecular target: Proto-oncogene tyrosine-protein kinase Src (Homo sapiens, UniProt P12931); test: Inhibition of SRC (unknown origin) at 1000 nM relative to control
[22] = molecular target: Glycogen synthase kinase-3 beta (Homo sapiens, UniProt P49841); test: Inhibition of GSK3beta (unknown origin) at 1000 nM relative to control
[23] = molecular target: Aurora kinase C (Homo sapiens) (UniProt Q9UQB9); test: Inhibition of AURC (unknown origin) at 1000 nM relative to control
[24] = molecular target: Calcium/calmodulin-dependent protein kinase type II subunit alpha (Homo sapiens, UniProt Q9UQM7); test: Inhibition of CAMK2alpha (unknown origin) at 1000 nM relative to control
[25] = molecular target: Serine/threonine-protein kinase Chk1 (Homo sapiens) (UniProt O14757); test: Inhibition of CHK1 (unknown origin) at 1000 nM relative to control
[26] = molecular target: RAC-alpha serine/threonine-protein kinase (Homo sapiens, UniProt P31749); test: Inhibition of AKT1 (unknown origin) at 1000 nM relative to control
[27] = molecular target: Ribosomal protein S6 kinase beta-1 (Homo sapiens, UniProt P23443); test: Inhibition of p70S6K (unknown origin) at 1000 nM relative to control
[28] = organism: Homo sapiens; test: Selectivity index, ratio of IC50 for human JAK3 to IC50 for human JAK2
[29] = molecular target: Dual specificity mitogen-activated protein kinase kinase 1 (Homo sapiens, UniProt Q02750); test: Inhibition of MAP2K1 (unknown origin) at 1000 nM relative to control
[30] = molecular target: High affinity nerve growth factor receptor (Homo sapiens, UniProt P04629); test: Inhibition of TRKA (unknown origin) at 1000 nM relative to control

SMILES	inhibition at 20 min, 5 µM [4] [%]	Papp at 2 h [6] [×10⁻⁶ cm/s]	IC50 [12] [nM]	IC50 [13] [nM]	IC50 [14] [nM]	CLint scaled at 0.75 h, 0.2 µM [18] [mL/min/kg]	also measured
C[C@@H]1CCN(C(=O)CC#N)C[C@@H]1n1c(=O)[nH]c2cnc3[nH]ccc3c21 (racemic)	90	< 0.7	–	–	–	–	half-life [1]: 67.8 min; half-life [2]: 708 min; bioavailability [3]: 11.2%; AUC(0-t) at 24 h [5]: 148 ng·h/mL; clearance [7]: 113 mL/min/kg; AUC(0-t) at 24 h [8]: 11.8 ng·h/mL; Cmax [9]: 2.98 ng/mL; Tmax [10]: 15 min; Vd [11]: 3.62 L/kg
C[C@@H]1CCN(C(=O)CC#N)C[C@@H]1n1ncc2cnc3[nH]ccc3c21 (racemic)	–	5.9	4.1	7.5	11	–	–
C[C@@H]1CCN(C(=O)CC#N)C[C@@H]1n1ccc2cnc3[nH]ccc3c21	–	–	–	–	–	–	inhibition [15]: 55%; inhibition [16]: 67%; inhibition [17]: 75%
C[C@@H]1CCN(c2ccc(C#N)cn2)C[C@@H]1n1c(=O)[nH]c2cnc3[nH]ccc3c21 (racemic)	29	8.8	1.6	9	4.5	195	–
C[C@@H]1CCN(C(=O)C(C)(C)C#N)C[C@@H]1n1c(=O)[nH]c2cnc3[nH]ccc3c21 (racemic)	18	6.3	7.1	58	15	44	–
C[C@@H]1CCN(C(=O)CC#N)C[C@@H]1n1c(=O)n(C)c2cnc3[nH]ccc3c21 (racemic)	–	2.5	–	–	–	–	–
C[C@@H]1CCN(C(=O)CC#N)C[C@@H]1n1cc(C#N)c2cnc3[nH]ccc3c21 (racemic)	91	3.8	1.1	–	2.2	47	–
C[C@H]1CCN(C(=O)CC#N)C[C@H]1n1ccc2cnc3[nH]ccc3c21	88	21	200	–	390	89	–
C[C@@H]1CCN(C(=O)CC#N)C[C@@H]1n1ccc2cnc3[nH]cc(C#N)c3c21	–	–	–	–	–	–	inhibition [19]: 91%; inhibition [20]: 59%; inhibition [21]: 51%; inhibition [22]: 92%; inhibition [23]: 77%; inhibition [15]: 88%; inhibition [24]: 54%; inhibition [25]: 59%; inhibition [16]: 98%; inhibition [26]: 80%; inhibition [27]: 78%; Ratio IC50 [28]: 10; inhibition [29]: 90%; inhibition [30]: 67%; inhibition [17]: 75%
Cc1c[nH]c2ncc3ccn([C@H]4CN(C(=O)CC#N)CC[C@H]4C)c3c12 (racemic)	62	23	2.5	–	4.9	309	–
C[C@@H]1CCN(C(=O)Cn2cnnn2)C[C@@H]1n1c(=O)[nH]c2cnc3[nH]ccc3c21 (racemic)	88	< 0.8	1.4	3.2	3.5	–	–
C[C@@H]1CCN(C(=O)CC#N)C[C@@H]1n1ccc2cnc3[nH]cc(C#N)c3c21 (racemic)	90	13	0.38	–	4.1	419	–
C[C@@H]1CCN(C(=O)CC#N)C[C@@H]1n1ccc2cnc3[nH]ccc3c21 (racemic)	90	13	0.44	1.1	1	110	–
Cc1cc2cnc3[nH]ccc3c2n1[C@H]1CN(C(=O)CC#N)CC[C@H]1C (racemic)	44	26	0.17	0.43	0.3	154	–
C[C@@H]1CCN(C(=O)N2CCCCC2)C[C@@H]1n1c(=O)[nH]c2cnc3[nH]ccc3c21 (racemic)	11	11	2.1	13	7	249	–
C[C@@H]1CCN(C(=O)N2CCOCC2)C[C@@H]1n1c(=O)[nH]c2cnc3[nH]ccc3c21 (racemic)	61	1.3	5.5	19	12	–	–
